# Test results published in patent US6376670B1, “Quinoline-indole antimicrobial agents, uses and compositions related thereto” (Sepracor Inc., priority 1997, dated 2002).
# Like-named read-outs stand apart in the source and are kept apart here.
# Legend:
# [1] = Acute in vivo toxicity in mice, intraperitoneal injection; settings: in 10% w/v hydroxypropyl-β-cyclodextrin in 0.9% w/v saline, 5 mice
# Method: Solutions of compounds in 10% w/v hydroxypropyl-β-cyclodextrin in 0.9% w/v saline were prepared. Doses of 40 mg/kg or 120 mg/kg of each compound were administered to mice (5 mice/compound/dose) via intraperitoneal injections. The mice […] for seven days.
# [2] = test system: vancomycin-resistant Enterococcus spp. (VRE); test: Determination of MIC values (BHI broth, 96 well microtiter plate); format: cell-based; settings: Enterococcus, VRE, BHI broth, read-out: MIC VREF
# Outline: (§1)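 Here, each test series spans final concentrations of 25 to 0.39 µg/mL in BHI broth, with DMSO as diluent. Plates seeded at 10^5–10^6 cells/mL are kept at 37° C and approx. 7-10% CO2 for about 16 hours before growth is scored.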
# [3] = test system: methicillin-resistant Staphylococcus aureus (MRSA); test: as above; format: cell-based; settings: Staphylococcus aureus, MRSA, BHI broth, read-out: MIC MRSA
# Outline: as §1
# [4] = test system: Streptococcus pneumoniae; test: as above; format: cell-based; settings: Streptococcus pneumoniae, BHI broth, read-out: MIC S. pneu
# Outline: as §1
# [5] = 16 h, 37° C., overnight (about 16 hours)
# [6] = 37° C., overnight (about 16 hours)
SMILES,"MIC ([2]; 16 h, 37° C., about 16 hours) [µg/mL]","MIC ([3]; 16 h, 37° C., about 16 hours) [µg/mL]","MIC ([4]; 37° C., about 16 hours) [µg/mL]",other results
NCCNC(=O)c1cc(-c2c[nH]c3ccc(Br)cc23)nc2ccc(I)cc12 [Example 107],–,–,–,"Mice Surviving on Day 7 ([1]; 40 mg/kg intraperitoneal): 100%; Mice Surviving on Day 7 ([1]; 120 mg/kg intraperitoneal): 0%; MIC [2, 5]: < 7 µg/mL; MIC [3, 5]: < 7 µg/mL; MIC [4, 6]: < 7 µg/mL"
Fc1ccc2c(-c3ccc4cc(Cl)ccc4n3)c[nH]c2c1 [Example 193],–,–,–,"Mice Surviving on Day 7 ([1]; 40 mg/kg intraperitoneal): 100%; Mice Surviving on Day 7 ([1]; 120 mg/kg intraperitoneal): 100%; MIC [2, 5]: < 7 µg/mL; MIC [3, 5]: < 7 µg/mL; MIC [4, 6]: < 7 µg/mL"
COC(=O)c1cc(-c2c[nH]c3ccc(Br)cc23)nc2cc(F)ccc12 [Example 307],–,–,–,"Mice Surviving on Day 7 ([1]; 40 mg/kg intraperitoneal): 100%; Mice Surviving on Day 7 ([1]; 120 mg/kg intraperitoneal): 100%; MIC ([2]; VREF, overnight 37° C.): < 7 µg/mL; MIC ([3]; overnight 37° C.): < 7 µg/mL; MIC ([4]; S. pneu, overnight 37° C.): < 7 µg/mL"
NCCNC(=O)c1cc(-c2c[nH]c3ccc(Br)cc23)nc2cc(Cl)ccc12 [Example 316],–,–,–,"Mice Surviving on Day 7 ([1]; 40 mg/kg intraperitoneal): 80%; Mice Surviving on Day 7 ([1]; 120 mg/kg intraperitoneal): 0%; MIC ([2]; VREF, overnight 37° C.): < 7 µg/mL; MIC ([3]; overnight 37° C.): < 7 µg/mL; MIC ([4]; S. pneu, overnight 37° C.): < 7 µg/mL"
Clc1ccc2[nH]cc(-c3cc(Cl)c4ccccc4n3)c2c1 [Example 342],–,–,–,"Mice Surviving on Day 7 ([1]; 40 mg/kg intraperitoneal): 100%; Mice Surviving on Day 7 ([1]; 120 mg/kg intraperitoneal): 100%; MIC ([2]; VREF, overnight 37° C.): > 25 µg/mL; MIC ([3]; overnight 37° C.): < 7 µg/mL; MIC ([4]; S. pneu, overnight 37° C.): < 7 µg/mL"
Cn1cc(-c2cc(C(=O)NCCN)c3cc(I)ccc3n2)c2cc(Br)ccc21 [Example 359],–,–,–,"Mice Surviving on Day 7 ([1]; 40 mg/kg intraperitoneal): 100%; Mice Surviving on Day 7 ([1]; 120 mg/kg intraperitoneal): 100%; MIC ([2]; VREF, overnight 37° C.): < 7 µg/mL; MIC ([3]; overnight 37° C.): < 7 µg/mL; MIC ([4]; S. pneu, overnight 37° C.): < 7 µg/mL"
Cn1cc(-c2cc(C(=O)NCCN)c3cc(C#CCN4CCCCC4)ccc3n2)c2cc(Br)ccc21 [Example 379],–,–,–,Mice Surviving on Day 7 ([1]; 40 mg/kg intraperitoneal): 40%; Mice Surviving on Day 7 ([1]; 120 mg/kg intraperitoneal): 0%
NCCNC(=O)c1cc(-c2c[nH]c3ccc(Br)cc23)nc2cc(Cl)c(C#CCN3CCCCC3)cc12 [Example 380],–,–,–,"Mice Surviving on Day 7 ([1]; 40 mg/kg intraperitoneal): 100%; Mice Surviving on Day 7 ([1]; 120 mg/kg intraperitoneal): 0%; MIC ([2]; VREF, overnight 37° C.): < 7 µg/mL; MIC ([3]; overnight 37° C.): < 7 µg/mL; MIC ([4]; S. pneu, overnight 37° C.): < 7 µg/mL"
COc1ccc2nc(-c3c[nH]c4ccc(Cl)cc34)ccc2c1 [Example 417],–,–,–,Mice Surviving on Day 7 ([1]; 40 mg/kg intraperitoneal): 100%; Mice Surviving on Day 7 ([1]; 120 mg/kg intraperitoneal): 100%
NCCNC(=O)c1cc(-c2c[nH]c3ccc(Br)cc23)nc2ccc(C#CCN3CCCCC3)cc12 [Example 418],< 7,< 7,< 7,Mice Surviving on Day 7 ([1]; 40 mg/kg intraperitoneal): 100%; Mice Surviving on Day 7 ([1]; 120 mg/kg intraperitoneal): 0%
NCCCCCNC(=O)c1cc(-c2c[nH]c3cc(F)ccc23)nc2cc(F)ccc12 [Example 497],< 25,< 25,< 25,–
O=C(c1cc(-c2c[nH]c3cc(F)ccc23)nc2cc(F)ccc12)N1CCNCC1 [Example 498],> 25,< 25,< 25,–
CN(C)CCN(C)C(=O)c1cc(-c2c[nH]c3ccc(Br)cc23)nc2ccc(I)cc12 [Example 499],< 7,< 7,< 7,–
CNCCN(C)C(=O)c1cc(-c2c[nH]c3ccc(Br)cc23)nc2ccc(Cl)cc12 [Example 500],< 7,< 7,< 7,–
CNCCN(C)C(=O)c1cc(-c2c[nH]c3ccc(Br)cc23)nc2cc(Cl)ccc12 [Example 501],< 7,< 7,< 7,–
CNCCN(C)C(=O)c1cc(-c2c[nH]c3ccc(Br)cc23)nc2ccc(I)cc12 [Example 502],< 7,< 7,< 7,–
Clc1ccc2nc(-c3c[nH]c4ccc(Br)cc34)c3c(c2c1)OCCC3 [Example 503],> 25,< 7,< 25,–
CN(C)CCN(C)C(=O)c1cc(-c2c[nH]c3ccc(Br)cc23)nc2cc(Cl)ccc12 [Example 505],< 7,< 7,< 7,–
CNCCN(C)C(=O)c1cc(-c2cn(C)c3ccc(Br)cc23)nc2cc(Cl)ccc12 [Example 506],< 7,< 7,< 7,–
CN(C)CCN(C)C(=O)c1cc(-c2cn(C)c3ccc(Br)cc23)nc2cc(Cl)ccc12 [Example 507],< 7,< 7,< 7,–
Fc1ccc2c(CCl)cc(-c3c[nH]c4ccc(Br)cc34)nc2c1 [Example 508],< 7,< 7,< 7,–
NCc1cc(-c2c[nH]c3ccc(Br)cc23)nc2cc(F)ccc12 [Example 509],< 7,< 7,< 7,–
NCc1cc(-c2c[nH]c3ccc(Br)cc23)nc2cc(Cl)ccc12 [Example 511],< 7,< 7,< 7,–
CN(C)CCN(C)C(=O)c1cc(-c2c[nH]c3ccc(Br)cc23)nc2cc(Cl)c(C#CCN3CCCCC3)cc12 [Example 512],< 7,< 7,< 7,–

SMILES,"MIC ([2]; 16 h, 37° C., about 16 hours) [µg/mL]","MIC ([3]; 16 h, 37° C., about 16 hours) [µg/mL]","MIC ([4]; 37° C., about 16 hours) [µg/mL]",other results
CNCCN(C)C(=O)c1cc(-c2c[nH]c3ccc(Br)cc23)nc2cc(Cl)c(C#CCN3CCCCC3)cc12 [Example 513],< 7,< 7,< 7,–
COc1ccc(NC(=O)NCc2cc(-c3c[nH]c4ccc(Br)cc34)nc3cc(Cl)ccc23)cc1 [Example 514],> 25,< 7,< 7,–
O=C(O)c1cc(-c2c[nH]c3ccc(Br)cc23)nc2cc(Cl)c(C#CCN3CCCCC3)cc12 [Example 516],< 25,< 7,< 7,–
Brc1ccc2[nH]cc(-c3nc4ccc(C#CCN5CCCCC5)cc4c4c3CCO4)c2c1 [Example 517],> 25,< 7,< 7,–
OCc1cc(-c2c[nH]c3ccc(Br)cc23)nc2cc(Cl)c(C#CCN3CCCCC3)cc12 [Example 518],< 7,< 7,< 7,–
CC(C)CNC(=O)c1cc(-c2c[nH]c3ccc(Br)cc23)nc2ccc(C#CCN3CCCCC3)cc12 [Example 519],> 25,< 7,< 7,–
CN(CC[N+](C)(C)C)C(=O)c1cc(-c2c[nH]c3ccc(Br)cc23)nc2cc(Cl)ccc12 [Example 520],< 7,< 7,< 7,–
CC(C)(C)NC(=O)NCc1cc(-c2c[nH]c3ccc(Br)cc23)nc2cc(Cl)ccc12 [Example 521],> 25,< 7,< 7,–
N#CCc1cc(-c2c[nH]c3ccc(Br)cc23)nc2cc(Cl)ccc12 [Example 522],< 25,< 7,< 7,–
NCCNC(=O)c1cc(-c2c[nH]c3ccc(Br)cc23)nc2ccc(C#CCO)cc12 [Example 523],< 7,< 7,< 7,–
O=C(NCc1cc(-c2c[nH]c3ccc(Br)cc23)nc2cc(Cl)ccc12)NC1CCCCC1 [Example 524],< 7,< 7,< 7,–
NCCNC(=O)c1cc(-c2c[nH]c3ccc(Br)cc23)nc2ccc(C#CCN3CCSCC3)cc12 [Example 525],< 7,< 7,< 7,–
NCCNC(=O)c1cc(-c2c[nH]c3ccc(Br)cc23)nc2ccc(C#CCN3CC=CCC3)cc12 [Example 526],< 7,< 7,< 7,–
NCCNC(=O)c1cc(-c2c[nH]c3ccc(Br)cc23)nc2ccc(C#CCNCCc3ccccc3)cc12 [Example 527],< 7,< 7,< 7,–
NCCNC(=O)c1cc(-c2c[nH]c3ccc(Br)cc23)nc2cc(Cl)c(C#CCN3CCSCC3)cc12 [Example 528],< 7,< 7,< 7,–
NCCNC(=O)c1cc(-c2c[nH]c3ccc(Br)cc23)nc2cc(Cl)c(C#CCN3CC=CCC3)cc12 [Example 529],< 7,< 7,< 7,–
NCCNC(=O)c1cc(-c2c[nH]c3ccc(Br)cc23)nc2cc(Cl)c(C#CCNCCc3ccccc3)cc12 [Example 530],< 7,< 7,< 7,–
Cc1cc2ccccc2nc1-c1c[nH]c2ccc(Cl)cc12 [Example 531],< 7,< 7,< 7,–
NCC(O)CNC(=O)c1cc(-c2c[nH]c3ccc(Br)cc23)nc2cc(F)ccc12 (centres unmarked) [Example 532],< 7,< 7,< 7,–
NCC(O)CNC(=O)c1cc(-c2c[nH]c3ccc(Br)cc23)nc2cc(Cl)cc(Cl)c12 (centres unmarked) [Example 533],< 7,< 7,< 7,–
NCC(O)CNC(=O)c1cc(-c2c[nH]c3ccc(Br)cc23)nc2ccc(C#CCN3CCCCC3)cc12 (centres unmarked) [Example 534],< 7,< 7,< 7,–
NCc1ccc(CNC(=O)c2cc(-c3c[nH]c4ccc(Br)cc34)nc3ccccc23)cc1 [compound 9],–,–,–,"MIC [2, 5]: < 7 µg/mL; MIC [3, 5]: < 7 µg/mL; MIC [4, 6]: < 7 µg/mL"
NCc1ccc(CNC(=O)c2cc(-c3c[nH]c4ccc(Br)cc34)nc3ccc(I)cc23)cc1 [compound 53],–,–,–,"MIC [2, 5]: < 7 µg/mL; MIC [3, 5]: < 7 µg/mL; MIC [4, 6]: < 7 µg/mL"
